# ChEMBL document CHEMBL1201862, “PubChem BioAssay data set” (2004)
#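 48-hour exposure; five concentrations; linearly interpolated endpoints. At the GI50, growth is halved.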 Activity calls are given as the source filed them. No stated cut-off is given here; in the data, active = GI50 up to about 1.1 µM and inactive = higher.
# What was measured:
# Assay in all cases: growth of human tumour cells (NCI), 48 h
# [1] = test system: ACHN
# [2] = test system: BT-549
# [3] = test system: CCRF-CEM
# [4] = test system: DU-145
# [5] = test system: HCC 2998
# [6] = test system: HCT-116
# [7] = test system: HL-60
# [8] = test system: HOP-92
# [9] = test system: IGROV-1
# [10] = test system: K562
# [11] = test system: LOX IMVI
# [12] = test system: Malme-3M
# [13] = test system: NCI-H226
# [14] = test system: NCI-H23
# [15] = test system: OVCAR-4
# [16] = test system: OVCAR-8
# [17] = test system: SF-295
# [18] = test system: SK-MEL-2
# [19] = test system: UACC-257
SMILES,GI50 [1],GI50 [2],GI50 [3],GI50 [4],GI50 [5],GI50 [6],GI50 [7],GI50 [8],GI50 [9],GI50 [10],GI50 [11],GI50 [12],GI50 [13],GI50 [14],GI50 [15],GI50 [16],GI50 [17],GI50 [18],GI50 [19]
O=C1c2c(O)cccc2C(C2OC(CO)C(O)C(O)C2O)c2cc(CO)cc(O)c21 (centres undefined),> 100 µM (inactive),> 100 µM (inactive),> 100 µM (inactive),> 100 µM (inactive),> 100 µM (inactive),> 100 µM (inactive),> 100 µM (inactive),> 100 µM (inactive),> 100 µM (inactive),> 100 µM (inactive),> 100 µM (inactive),> 100 µM (inactive),> 100 µM (inactive),> 100 µM (inactive),> 100 µM (inactive),> 100 µM (inactive),> 100 µM (inactive),> 100 µM (inactive),> 100 µM (inactive)
CN(C)CCN(C)P12(Oc3ccccc3O1)Oc1c(Cl)c(Cl)c(Cl)c(Cl)c1O2,39.8 µM (inactive),56.4 µM (inactive),29 µM (inactive),85.5 µM (inactive),> 100 µM (inactive),33.2 µM (inactive),18.8 µM (inactive),22.1 µM (inactive),45.4 µM (inactive),35.6 µM (inactive),63 µM (inactive),46.6 µM (inactive),> 100 µM (inactive),35.8 µM (inactive),33.5 µM (inactive),40.7 µM (inactive),37.1 µM (inactive),–,29.5 µM (inactive)
CCCCOCCOCCOC1=C(Cl)C(=O)c2c(O)ccc(O)c2C1=O,1.59 µM (inactive),1.39 µM (inactive),< 0.01 µM (active),1.77 µM (inactive),2.1 µM (inactive),0.401 µM (active),0.144 µM (active),0.199 µM (active),1.35 µM (inactive),0.0419 µM (active),0.512 µM (active),1.46 µM (inactive),1.79 µM (inactive),0.984 µM (active),0.359 µM (active),1.37 µM (inactive),1.73 µM (inactive),–,0.766 µM (active)
CO/N=C(\C)c1cccc(Nc2c3ccccc3nc3occc23)c1,–,18.1 µM (inactive),5.42 µM (inactive),18.9 µM (inactive),6.93 µM (inactive),8.34 µM (inactive),3.53 µM (inactive),14.3 µM (inactive),5.05 µM (inactive),4.11 µM (inactive),10.4 µM (inactive),13.4 µM (inactive),12 µM (inactive),7.45 µM (inactive),4.75 µM (inactive),20 µM (inactive),5.46 µM (inactive),3.56 µM (inactive),12.5 µM (inactive)
CC(C)(C)OC(=O)NCC(=O)N1CCCN(C(=O)CNC(=O)OC(C)(C)C)CC1,> 100 µM (inactive),> 100 µM (inactive),–,> 100 µM (inactive),> 100 µM (inactive),> 100 µM (inactive),> 100 µM (inactive),> 100 µM (inactive),> 100 µM (inactive),> 100 µM (inactive),> 100 µM (inactive),> 100 µM (inactive),> 100 µM (inactive),> 100 µM (inactive),> 100 µM (inactive),> 100 µM (inactive),> 100 µM (inactive),> 100 µM (inactive),> 100 µM (inactive)
CCOC(=O)CCC(NC(=O)c1ccc(NCc2ccc3nc(OC)c(OC)nc3c2)c2ccccc12)C(=O)OCC (centres undefined),55.8 µM (inactive),> 100 µM (inactive),–,> 100 µM (inactive),> 100 µM (inactive),> 100 µM (inactive),0.0836 µM (active),16.2 µM (inactive),31.8 µM (inactive),> 100 µM (inactive),> 100 µM (inactive),> 100 µM (inactive),> 100 µM (inactive),> 100 µM (inactive),43.1 µM (inactive),57.5 µM (inactive),36.2 µM (inactive),> 100 µM (inactive),> 100 µM (inactive)
COC(=O)C1=CO[C@@H](OC2OC(CO)C(O)C(O)C2O)[C@H]2[C@@H](C)[C@@H](O)[C@@H](O)[C@@H]12 (some centres undefined),> 100 µM (inactive),> 100 µM (inactive),–,> 100 µM (inactive),> 100 µM (inactive),> 100 µM (inactive),> 100 µM (inactive),> 100 µM (inactive),> 100 µM (inactive),–,> 100 µM (inactive),> 100 µM (inactive),> 100 µM (inactive),> 100 µM (inactive),> 100 µM (inactive),> 100 µM (inactive),> 100 µM (inactive),> 100 µM (inactive),> 100 µM (inactive)
Cc1ccccc1C(=O)C#Cc1cn(C2CC(O)C(CO)O2)c(=O)[nH]c1=O (centres undefined),> 100 µM (inactive),> 100 µM (inactive),20.5 µM (inactive),> 100 µM (inactive),> 100 µM (inactive),> 100 µM (inactive),> 100 µM (inactive),74.1 µM (inactive),> 100 µM (inactive),57 µM (inactive),–,18.3 µM (inactive),> 100 µM (inactive),> 100 µM (inactive),> 100 µM (inactive),> 100 µM (inactive),> 100 µM (inactive),> 100 µM (inactive),> 100 µM (inactive)
CC1=NCCN=C(C)C1/N=N/c1ccc2[nH]c(C)nc2c1,15.6 µM (inactive),9.08 µM (inactive),4.97 µM (inactive),16.1 µM (inactive),14 µM (inactive),13.2 µM (inactive),3.54 µM (inactive),4.7 µM (inactive),25.9 µM (inactive),4.83 µM (inactive),20.7 µM (inactive),16 µM (inactive),20.3 µM (inactive),13.8 µM (inactive),12.4 µM (inactive),12.2 µM (inactive),13.2 µM (inactive),19.2 µM (inactive),11.3 µM (inactive)
CCOC(=O)CNC1=NNS(=O)(=O)c2ccccc21,> 100 µM (inactive),> 100 µM (inactive),59.8 µM (inactive),> 100 µM (inactive),> 100 µM (inactive),> 100 µM (inactive),66.5 µM (inactive),> 100 µM (inactive),> 100 µM (inactive),> 100 µM (inactive),> 100 µM (inactive),> 100 µM (inactive),> 100 µM (inactive),> 100 µM (inactive),> 100 µM (inactive),> 100 µM (inactive),> 100 µM (inactive),–,> 100 µM (inactive)
COc1cc(N(CCC#N)CCC#N)ccc1C(=N/NC(=O)c1cc(Br)ccc1O)/N=N/c1ccccc1,28.2 µM (inactive),20.8 µM (inactive),8.45 µM (inactive),27.9 µM (inactive),23.3 µM (inactive),21.5 µM (inactive),13.9 µM (inactive),24.3 µM (inactive),13.8 µM (inactive),19.4 µM (inactive),25.8 µM (inactive),31.7 µM (inactive),33.2 µM (inactive),21.4 µM (inactive),19.6 µM (inactive),28.4 µM (inactive),31.6 µM (inactive),26.7 µM (inactive),24.7 µM (inactive)
C/C1=C\CC[C@@]2(C)O[C@@H]2C[C@@H]2[C@H](C/C(C)=C/CC1)OC(=O)C21CCN=N1 (some centres undefined),35.3 µM (inactive),> 75 µM (inactive),15 µM (inactive),> 75 µM (inactive),> 75 µM (inactive),> 75 µM (inactive),37.2 µM (inactive),> 75 µM (inactive),> 75 µM (inactive),6.98 µM (inactive),21 µM (inactive),> 75 µM (inactive),> 100 µM (inactive),> 75 µM (inactive),61.8 µM (inactive),> 75 µM (inactive),32.4 µM (inactive),> 75 µM (inactive),> 75 µM (inactive)
COc1ccc2nc3c(c(N)c2c1)C1CCC3C1(C)C (centres undefined),> 100 µM (inactive),> 100 µM (inactive),14.1 µM (inactive),> 100 µM (inactive),17.5 µM (inactive),32.4 µM (inactive),18.5 µM (inactive),16.4 µM (inactive),42.9 µM (inactive),41.7 µM (inactive),35.9 µM (inactive),24.3 µM (inactive),25.3 µM (inactive),54.8 µM (inactive),47.6 µM (inactive),71.1 µM (inactive),20.6 µM (inactive),25.5 µM (inactive),18.9 µM (inactive)
Cc1ccc(S[C@@](C=O)(NC(=O)OCc2ccccc2)C(F)(F)F)cc1,–,28.4 µM (inactive),23.2 µM (inactive),21.7 µM (inactive),37.8 µM (inactive),16.1 µM (inactive),16.5 µM (inactive),22.9 µM (inactive),18.5 µM (inactive),28.6 µM (inactive),21.3 µM (inactive),26.4 µM (inactive),18.6 µM (inactive),19.5 µM (inactive),44.9 µM (inactive),20.7 µM (inactive),31 µM (inactive),25.8 µM (inactive),36.8 µM (inactive)
O=S1(=O)OCc2ccccc21,61.5 µM (inactive),> 100 µM (inactive),> 100 µM (inactive),> 100 µM (inactive),> 100 µM (inactive),37.3 µM (inactive),59.3 µM (inactive),> 100 µM (inactive),> 100 µM (inactive),> 100 µM (inactive),–,> 100 µM (inactive),97.5 µM (inactive),> 100 µM (inactive),51.1 µM (inactive),> 100 µM (inactive),> 100 µM (inactive),> 100 µM (inactive),> 100 µM (inactive)
